Measurements: patent US20190070140A1, “COMPOSITION COMPRISING PROTECTIN DX AS ACTIVE INGREDIENT FOR PREVENTING OR TREATING HYPERLIPIDEMIA OR FATTY LIVER DISEASE” (Solvit P&F, priority 2017, published 2019)

Assays:
[1] = system: ORP150; experiment: Western-blot assay of ORP150 in HepG2 cells; assay type: cell-based, Human; conditions: 2 μm PDX, 24 hours, FIG. 3A
Description: After collecting HepG2 cells, protein was extracted from the cells with a buffer (PRO-PREF; Intron Biotechnology, Seoul, Korea) at 4° C. for 1 hour. A protein sample (35 μg) was applied to 12% SDS-PAGE, transferred to a nitrocellulose film (Amersham Bioscience, Westborough, Mass., USA), detected with a primary antibody, followed by probing with a secondary antibody and another secondary antibody conjugated with horseradish […] (Santa Cruz Biotechnology). The sample was detected by ECL kit. Under 70% comfluency, 0 to 20 nmol/L […] (si)RNA oligonucleotide to ORP150 purchased from Santa Cruz Biotechnology was transfected to inhibit gene expression. Scramble siRNA was used as a control group. 2 or 4 μg of pCMV3-ORP150 (Sino Biological, Beijing, China) was transiently transfected, leading to over-expression of ORP150. pCMV3 empty-vector was used as a control group. According to instruction of the manufacturer, transfection was executed using lipofectamine 2000 (Invitrogen). The present inventors have executed western-blot assay of ORP150 in HepG2 cells transfected with scramble siRNA or siFOXO1 in the presence of 2 μm of PDX for 24 hours.

[2] = Body weight, liver weight and epididymal fat content of HFD mice; assay type: in vivo, mouse; conditions: PDX i.p. 1 μg/mice/day for 8 weeks, compared to HFD diet mice
Description: (§1) The present study has received the approval of the Institutional Animal Review Committee (Institutional Animal Care and Use Committee in Korea University, Seoul, Korea). The animal experiment was conducted according to the Guide for Care and Use of Laboratory Animals (NH publication, 8th Ed., 2011). A control group and a group of male C57BL/6J(B6) mice at 8 weeks of age were subjected to a normal diet (ND, Brogaarden, Gentofte, Denmark) and a high fat diet (HFD, Research Diets, New Brunswick, N.J., USA) for 8 weeks, respectively. The HFD (high fat diet) group was provided with intra-peritoneal injection of PDX for 8 weeks (1 μg/mice/day). An ethanol injection group was used as a control group. According to the above experimental procedures conducted for 8 weeks, the present inventors measured body weights, daily energy intakes, liver weights and epididymal fat contents, with respect to five mice per group.

[3] = system: adiponectin; experiment: Adiponectin level in blood serum of HFD mice; assay type: in vivo, mouse; conditions: PDX i.p. 1 μg/mice/day for 8 weeks, FIG. 5E
Description: as §1, with “group.” for “group. According to the above experimental procedures conducted for 8 weeks, the present inventors measured body weights, daily energy intakes, liver weights and epididymal fat contents, with respect to five mice per group.”

With `CC/C=C\C[C@H](O)/C=C/C=C\C=C\[C@@H](O)C/C=C\C/C=C\CCC(=O)O` [PDX, 10S,17S-dihydroxy-docosa-4Z,7Z,11E,13Z,15E,19Z-hexaeonic acid] as the molecule, how does the “PDX effects of promoting ORP150 expression” value ([1]; HepG2 cells transfected with FOXO1 siRNA) read?
Its value is “inhibited”.

And the ORP150 expression level ([1]; HepG2 cells, scramble siRNA)?
Its ORP150 expression level is “increased”.

And the body weights ([2]; FIG. 6A)?
Its body weights is “significantly reduced”.

What about the liver weights ([2]; FIG. 6C) of the same molecule?
The liver weights was “significantly decreased”.

And the epididymal fat contents ([2]; FIG. 6D)?
Its epididymal fat contents is “significantly decreased”.

And the “level of adiponectin in blood serum” value [3]?
Its value is “increased”.
